The text below walks through data of patent US8058243B2, “Method for treating a brain cancer with ifenprodil” (HSC Research and Development Limited Partnership, priority 2006, dated 2011).

The subject of the assay is murine neural precursor cells (neurosphere cultures). Put plainly: HTS of LOPAC library against secondary neurosphere cultures, MTT proliferation assay at 3 μM, day 7 (z score, P value). Type of assay: cell-based, mouse. For orientation: Formazan colour is commonly taken as a measure of viable cells.
The mark [1] stands for this setting: LOPAC library screen, 3 μM, MTT, neurosphere cultures.
Setting [2] is: primary LOPAC screen, 3 μM, MTT, neurosphere proliferation.
[3] abbreviates: yes/no: significantly inhibited neurosphere proliferation in the primary screen.
The mark [4] stands for this setting: LOPAC library screen at 3 μM, secondary neurosphere cultures, MTT.
Where [5] appears, read: LOPAC primary screen, neurosphere MTT proliferation, 3 μM, day 7.
The mark [6] stands for this setting: yes/no: significantly inhibited neurosphere proliferation (P<0.01) in primary screen.
Setting [7] is: yes/no: significantly inhibited neurosphere proliferation in primary screen.
Setting [8] is: yes/no: significantly inhibited neurosphere proliferation (P<0.01) in the primary screen.
Setting [9] is: LOPAC library screen, 3 μM, MTT, secondary neurosphere cultures, day 7.
The mark [10] stands for this setting: LOPAC screen, neurosphere MTT proliferation, 3 μM, day 7.
Where [11] appears, read: LOPAC library screen at 3 μM, MTT, secondary neurosphere cultures, screened in singlets.
Where [12] appears, read: yes = significantly inhibited neurosphere proliferation (P<0.01) in the primary screen.

Structures can show the parent of a compound that is named as a salt. Where two headings read alike, the source gives them in different places.

For the compound S(−)-Atenolol, the “Z Score” value under setting [1] stood at 0.617. The compound further returned a Z score under setting [2] of 0.617. In addition, under setting [3], the Activity entry is “no”.
For `CCCCCCC(C(C)O)n1cnc2c(N)ncnc21.Cl` (centres unmarked), the “Z Score” value under setting [4] was −0.7656. The same compound came in with a Z score under setting [5] of −0.766. The Activity result under setting [6] was “no”.
Turning to Picrotoxin, the “Z Score” value was 0.7771. In addition, under setting [5], the Z score worked out at 0.777. Also, under setting [7], the Activity result is listed as “no”.
As to `O=C(Cc1ccc(Cl)c(Cl)c1)OCCN1CCCC1` [AC 915 oxalate], the “Z Score” value under setting [4] was −0.8903. Under setting [5], the Z score was −0.890. Further, the Activity result under setting [8] is on record as “no”.
Consider `N#Cc1c(-c2ccccc2)no[n+]1[O-]` [4-Phenyl-3-furoxancarbonitrile], for which, under “168 h, 3 µM”, the “Z Score” value amounted to 0.9313 and the Z score stood at 0.931. The Activity result under setting [7] was “no”.
As for `C[C@]12C=CC(=O)C=C1CC[C@@H]1C2=CC[C@]2(C)[C@@H](C(=O)CN3CCN(c4cc(N5CCCC5)nc(N5CCCC5)n4)CC3)CC[C@@H]12.O=C(O)/C=C\C(=O)O` [U-74389G maleate], the “Z Score” value under setting [9] was −8.942. Besides, the Z score under setting [5] is reported as −8.942. For the same compound, under setting [8], the Activity entry was “yes”.
Compound `Cl.Cl.Clc1cccc(N2CCNCC2)c1` [1-(3-Chlorophenyl)piperazine dihydrochloride] registered a Z score under setting [10] of 0.952. For the same compound, under setting [6], the Activity entry was “no”.
With `O=C(/C=C/c1ccc(O)cc1)c1ccc(O)cc1O` [Isoliquiritigenin], under “168 h, 3 µM”, the “Z Score” value is −2.817 and the Z score is listed as −2.817. Also, the Activity result under setting [8] is “yes”.
On to `Cc1ccc(/C(=C\CN2CCCC2)c2ccccn2)cc1` [Triprolidine hydrochloride], for which the “Z Score” value under setting [4] was −0.4061. Under setting [5], this compound registered a Z score of −0.406. Besides, under setting [7], the Activity entry is “no”.
In the case of `O=C1CC2(CCCC2)CC(=O)N1CCCCN1CCN(c2ncccn2)CC1` [Buspirone hydrochloride], the Activity result is “no”. Moreover, where the note is “168 h, 3 µM”, the “Z Score” value is −1.775 and the Z score is given as −1.775.
As to `CC(=O)N[C@@H](Cc1c[nH]c2ccccc12)C(=O)OCc1cc(C(F)(F)F)cc(C(F)(F)F)c1` [L-732,138], the “Z Score” value came out at 0.5027. Further, the Z score under setting [2] was 0.503. Further, the Activity entry under setting [3] is “no”.
Consider `O=C(NCCNCC(O)COc1ccc(O)cc1)N1CCOCC1` (centres unmarked) [Xamoterol hemifumarate], for which, where the note is “168 h, 3 µM”, the “Z Score” value was −0.1243 and the Z score was −0.124. In addition, the Activity result under setting [3] was “no”.
Turning to `CC(=O)C(C)=O` [2,3-Butanedione], the “Z Score” value is recorded as −1.642. The Z score under setting [10] is recorded as −1.642. The Activity result under setting [6] was “no”.
With `Cl.NCCc1ccc(S(=O)(=O)F)cc1` [4-(2-Aminoethyl)benzenesulfonyl fluoride hydrochloride], the “Z Score” value is reported as 0.3634. Besides, under setting [2], the Z score came out at 0.363. Also, the Activity result under setting [3] is “no”.
The compound `Cl.N=C(N)NC(=O)Cc1c(Cl)cccc1Cl` [Guranfacine hydrochloride] registered a Z score under setting [5] of 0.927. Further, the Activity entry under setting [6] is “no”.
As to (−)Amethopterin, the “Z Score” value under setting [9] is −8.704. The same compound returned a Z score under setting [5] of −8.704. For the same compound, the Activity entry under setting [8] is recorded as “yes”.
Take `CC(=O)Oc1ccccc1C(=O)O` [Acetylsalicyclic acid]: the Z score under setting [2] is listed as −0.481. Further, the Activity entry under setting [3] is “no”.
As for `Cc1ccc(C(=O)Nc2ccc(S(=O)(=O)[O-])c3cc(S(=O)(=O)[O-])cc(S(=O)(=O)[O-])c23)cc1NC(=O)c1cccc(NC(=O)Nc2cccc(C(=O)Nc3cc(C(=O)Nc4ccc(S(=O)(=O)[O-])c5cc(S(=O)(=O)[O-])cc(S(=O)(=O)[O-])c45)ccc3C)c2)c1.[Na+].[Na+].[Na+].[Na+].[Na+].[Na+]` [Suramin hexasodium], the “Z Score” value under setting [11] came out at 2.284. Also, the Z score under setting [2] is 2.284. For the same compound, under setting [3], the Activity result is reported as “no”.
On to `Cl.FC(F)(F)c1cc(CO[C@H]2CCCN[C@H]2c2ccccc2)cc(C(F)(F)F)c1` [L-733,060 hydrochloride], for which the “Z Score” value is on record as −1.465. The Z score under setting [5] is recorded as −1.465. Moreover, the Activity entry under setting [12] is “no”.
Turning to `CCN1CCCC1CNC(=O)c1cc(S(N)(=O)=O)ccc1OC` (single isomer, unassigned; (-)) [(−)-Sulpiride], the “Z Score” value under setting [9] is on record as −2.647. Under setting [5], this compound showed a Z score of −2.647. Under setting [8], the Activity result was “yes”.
Consider `Cl.O=C(Cc1ccc(Cl)c(Cl)c1)N1CCCCC1CN1CCCC1` (centres unmarked) [BRL 52537 hydrochloride], for which the “Z Score” value is recorded as −2.761. Besides, under setting [5], the Z score is −2.761. The Activity entry under setting [8] is “yes”.
In the case of `CN1[C@@H](CC(=O)c2ccccc2)CCC[C@H]1C[C@H](O)c1ccccc1` [alpha-Lobeline hydrochloride], the “Z Score” value under setting [1] stood at 0.5499. Under setting [5], this compound showed a Z score of 0.550. For the same compound, the Activity entry under setting [6] was “no”.
Turning to `N[C@@H](Cc1ccc(O)c(I)c1)C(=O)O` [3-Iodo-L-tyrosine], for the setting “168 h, 3 µM”, the “Z Score” value was −0.04844 and the Z score is −0.048. Also, under setting [6], the Activity result is “no”.
On to `O=C(O)Cc1ccccc1Nc1c(Cl)cccc1Cl` [Diclofenac sodium], for which the “Z Score” value under setting [1] was 0.2988. This compound had a Z score under setting [10] of 0.299. Also, the Activity entry under setting [6] is on record as “no”.
As for `CCN1CCCC1CNC(=O)c1cc(S(N)(=O)=O)ccc1OC` (centres unmarked) [(B1)-Sulpiride], the “Z Score” value is −0.2841.
On to `CCCCN1CCC(COC(=O)c2cc(Cl)c(N)c3c2OCCO3)CC1.Cl` [SB 204070 hydrochloride], for which the “Z Score” value is reported as −5.886. Under setting [5], this compound returned a Z score of −5.886. Moreover, the Activity entry under setting [8] is given as “yes”.
As for `CN1C(C(=O)Nc2ccccn2)=C(O)c2ccccc2S1(=O)=O` [Piroxicam], the “Z Score” value under setting [1] is recorded as 0.2527. In addition, under setting [5], the Z score was 0.253. Under setting [12], the Activity entry is given as “no”.
With `CCCCNc1ccc(C(=O)OCCN(C)C)cc1` [Tetracaine hydrochloride], under setting [1], the “Z Score” value is reported as −0.01953. Under setting [2], this compound had a Z score of −0.020. Under setting [3], the Activity entry was “no”.
Turning to `NC(C(=O)O)C(O)C(=O)O` (racemic) [DL-threo-beta-hydroxyaspartic acid], the “Z Score” value is recorded as −0.5215. The compound also showed a Z score under setting [5] of −0.522. Further, the Activity result under setting [6] is “no”.
For `CC[C@]1(O)C[C@H]2CN(CCc3c([nH]c4ccccc34)[C@@](C(=O)OC)(c3cc4c(cc3OC)N(C=O)[C@H]3[C@@](O)(C(=O)OC)[C@H](OC(C)=O)[C@]5(CC)C=CCN6CC[C@]43[C@@H]65)C2)C1` [Vincristine sulfate], the “Z Score” value under setting [9] is −10.79. This compound came in with a Z score under setting [5] of −10.792. In addition, the Activity entry under setting [8] was “yes”.
Consider `CCCCCCCCCCCCCCCCCC(=O)OC(CC(=O)O)C[N+](C)(C)C.[Cl-]` (racemic) [DL-Stearoylcarnitine chloride], for which the “Z Score” value turned out to be 0.6378. Further, the Z score under setting [5] turned out to be 0.638. Further, under setting [7], the Activity entry is on record as “no”.
`CN1CC[C@]2(CCN3CCc4c(oc5ccccc45)[C@@H]3C2)N(C)C1=O.Cl` [MK-912]: the “Z Score” value is reported as −0.582. The compound further had a Z score under setting [5] of −0.582. For the same compound, the Activity entry under setting [12] was “no”.
As for `NC1CCN(O)C1=O` (centres unmarked) [(B1)-HA-966], the “Z Score” value worked out at 1.157.
Turning to `CC(C)C(=O)Nc1ccc([N+](=O)[O-])c(C(F)(F)F)c1` [Flutamide], the “Z Score” value under setting [4] is listed as −0.1133. The same compound gave a Z score under setting [5] of −0.113.
In the case of `COc1cc2c(CCNC(C)=O)c[nH]c2cc1O` [6-Hydroxymelatonin], the “Z Score” value under setting [1] was 0.3767. This compound also registered a Z score under setting [5] of 0.377. The Activity result under setting [6] is listed as “no”.
Turning to `Br.COc1ccc(-c2ccc(=N)n(CCCC(=O)O)n2)cc1` [SR-95531], the Activity entry is listed as “no”, the “Z Score” value is reported as −0.9574 and the Z score is −0.957.
Turning to `CC(C)CN(C)c1nc(N)c(C(=O)N=C(N)N)nc1Cl` [5-(N-Methyl-N-isobutyl)amiloride], the “Z Score” value under setting [11] stood at 1.871. The Z score under setting [2] amounted to 1.871. Moreover, the Activity result under setting [3] is listed as “no”.
For the compound `CC(N)Cc1c[nH]c2ccc(OCc3cccs3)cc12` (centres unmarked) [BW 723C86], the “Z Score” value was determined as 0.7247. The compound also displayed a Z score under setting [10] of 0.725. For the same compound, under setting [6], the Activity result was “no”.
Turning to `CCCCCCCCCC(=O)NC(CN1CCOCC1)[C@H](O)c1ccccc1.Cl` (some centres unmarked), the “Z Score” value under setting [4] was −1.109.
For the compound `C[C@@H]1O[C@H](C[N+](C)(C)C)CS1.[I-]` [OXA-22 iodide], the Activity entry was “no”, the “Z Score” value was −1.666 and the Z score was −1.666.
Turning to `CNCCCC1c2ccccc2C=Cc2ccccc21` [Protriptyline hydrochloride], under setting [1], the “Z Score” value was determined as 0.7603. The compound also displayed a Z score under setting [5] of 0.760. Moreover, the Activity entry under setting [7] is recorded as “no”.
In the case of `CN1CCN(CCCN2c3ccccc3Sc3ccc(Cl)cc32)CC1` [Prochlorperazine dimaleate], where the note is “168 h, 3 µM”, the “Z Score” value is given as −0.8602 and the Z score is reported as −0.860. For the same compound, the Activity entry under setting [8] is recorded as “no”.
Consider `COc1ccccc1NC(=O)Nc1nc(-c2cccnc2)nc2ccccc12` [VUF 5574], for which the “Z Score” value is 0.5811. Under setting [2], this compound gave a Z score of 0.581. Further, the Activity entry under setting [3] is given as “no”.
Turning to `CCN(CC)CCCCCCCCOC(=O)c1cc(OC)c(OC)c(OC)c1.Cl` [TMB-8 hydrochloride], the “Z Score” value was found to be 1.707. Also, the Z score under setting [5] is listed as 1.707. Further, the Activity result under setting [12] is “no”.
